The record followed here is ChEMBL document CHEMBL4418499, “Inhibitors of trim33 and methods of use” (2018).

Structures are written as SMILES.

Assay [1] deals with T1, E3 ubiquitin-protein ligase TRIM33 (Homo sapiens, UniProt Q9UPN9).
T1 sequence (Q9UPN9 whole entry): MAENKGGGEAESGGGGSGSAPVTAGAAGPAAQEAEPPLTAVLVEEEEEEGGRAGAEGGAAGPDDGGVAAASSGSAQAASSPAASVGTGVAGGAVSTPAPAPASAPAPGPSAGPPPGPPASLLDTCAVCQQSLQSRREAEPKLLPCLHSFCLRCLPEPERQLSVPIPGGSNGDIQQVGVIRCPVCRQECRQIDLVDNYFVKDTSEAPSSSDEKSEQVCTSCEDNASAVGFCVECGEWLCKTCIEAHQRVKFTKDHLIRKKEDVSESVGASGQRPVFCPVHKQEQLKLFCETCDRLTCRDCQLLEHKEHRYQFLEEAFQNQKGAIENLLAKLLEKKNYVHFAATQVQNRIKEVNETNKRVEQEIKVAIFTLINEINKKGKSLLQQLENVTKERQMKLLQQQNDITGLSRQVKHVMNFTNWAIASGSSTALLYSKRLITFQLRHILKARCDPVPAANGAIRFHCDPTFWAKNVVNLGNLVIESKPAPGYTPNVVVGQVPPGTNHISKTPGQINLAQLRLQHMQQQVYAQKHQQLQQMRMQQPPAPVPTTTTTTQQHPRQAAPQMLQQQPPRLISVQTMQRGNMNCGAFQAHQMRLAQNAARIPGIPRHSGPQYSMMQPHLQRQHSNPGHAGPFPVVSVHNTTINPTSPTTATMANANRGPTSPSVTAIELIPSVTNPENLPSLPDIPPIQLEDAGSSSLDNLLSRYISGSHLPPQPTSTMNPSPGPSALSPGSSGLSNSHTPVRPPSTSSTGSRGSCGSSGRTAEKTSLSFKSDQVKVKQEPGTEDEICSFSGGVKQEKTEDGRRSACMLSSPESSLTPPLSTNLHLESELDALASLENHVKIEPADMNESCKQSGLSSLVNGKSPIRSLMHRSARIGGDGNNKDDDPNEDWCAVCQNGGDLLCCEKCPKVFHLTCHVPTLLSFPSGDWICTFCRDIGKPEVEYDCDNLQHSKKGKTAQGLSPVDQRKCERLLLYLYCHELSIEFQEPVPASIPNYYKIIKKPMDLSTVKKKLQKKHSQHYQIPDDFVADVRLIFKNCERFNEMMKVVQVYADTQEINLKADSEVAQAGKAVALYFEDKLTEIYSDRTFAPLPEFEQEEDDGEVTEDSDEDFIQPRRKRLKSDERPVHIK
Nature of the assay: Inhibition of recombinant TRIM33 PHD bromodomain (unknown origin) using biotinylated H3 peptide (H3K9me3K18ac) by AlphaScreen assay. (In Alpha technology, singlet oxygen from a donor bead excites a nearby acceptor bead.)

The species entered for a further assay is Homo sapiens. Nature of the assay: Selectivity index, ratio of IC50 for recombinant TRIM24 (unknown origin) to IC50 for recombinant TRIM33 PHD bromodomain (unknown origin).
Assay [2] deals with T2, Transcription intermediary factor 1-alpha (Homo sapiens, UniProt O15164).
T2 sequence (O15164 whole entry): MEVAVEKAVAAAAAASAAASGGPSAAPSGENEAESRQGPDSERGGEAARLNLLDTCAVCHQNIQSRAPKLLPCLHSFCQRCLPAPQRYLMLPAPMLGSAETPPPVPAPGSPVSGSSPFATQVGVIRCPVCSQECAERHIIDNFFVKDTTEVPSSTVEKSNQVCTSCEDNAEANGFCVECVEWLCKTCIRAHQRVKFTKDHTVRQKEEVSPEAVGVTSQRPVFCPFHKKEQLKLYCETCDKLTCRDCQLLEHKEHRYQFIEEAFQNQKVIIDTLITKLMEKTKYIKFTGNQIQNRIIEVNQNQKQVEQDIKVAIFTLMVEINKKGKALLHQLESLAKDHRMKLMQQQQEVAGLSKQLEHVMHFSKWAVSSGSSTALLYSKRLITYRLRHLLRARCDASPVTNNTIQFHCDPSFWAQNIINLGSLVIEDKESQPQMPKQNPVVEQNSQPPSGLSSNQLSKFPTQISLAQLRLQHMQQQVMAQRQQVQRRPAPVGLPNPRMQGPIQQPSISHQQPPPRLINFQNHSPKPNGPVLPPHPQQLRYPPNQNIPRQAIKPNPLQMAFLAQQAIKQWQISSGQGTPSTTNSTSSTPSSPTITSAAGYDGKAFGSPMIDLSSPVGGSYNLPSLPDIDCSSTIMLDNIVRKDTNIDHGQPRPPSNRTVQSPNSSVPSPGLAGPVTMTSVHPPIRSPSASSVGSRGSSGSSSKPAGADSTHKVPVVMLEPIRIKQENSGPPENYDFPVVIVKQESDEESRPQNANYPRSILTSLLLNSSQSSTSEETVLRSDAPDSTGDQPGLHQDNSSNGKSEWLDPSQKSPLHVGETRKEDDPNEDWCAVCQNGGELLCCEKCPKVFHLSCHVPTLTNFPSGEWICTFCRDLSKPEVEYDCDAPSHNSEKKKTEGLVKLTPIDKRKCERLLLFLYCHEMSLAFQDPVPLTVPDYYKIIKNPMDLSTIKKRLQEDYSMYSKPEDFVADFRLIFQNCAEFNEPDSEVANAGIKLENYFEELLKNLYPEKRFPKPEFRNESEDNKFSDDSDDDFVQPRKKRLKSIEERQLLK
Nature of the assay: Inhibition of recombinant TRIM24 (unknown origin) using biotinylated H3 peptide (H3K9me3K18ac) by AlphaScreen assay.

A word on the IC50: it is the concentration that gives 50% inhibition.

In the case of `CCCOc1ccn2c(C(C)=O)cc(-c3nc4cnccn4c3Nc3ccc(OC)cc3)c2c1`, the IC50 in assay [1] stood at 38.5 µM; in assay [2], 226 µM. Further, in the assay listed under Homo sapiens, the Ratio IC50 was 5.87.
The like results for `COC(=O)c1ccc2nc(-c3c[nH]c(C)n3)c(NCCN3CCOCC3)n2c1` were, in that order, 71.4 µM, 2870 µM and 40.3.
Regarding `c1ccn2c(NC3CCCCC3)c(-c3ccc4nccn4c3)nc2c1`, the values for the IC50 in assay [1] and in assay [2] were 13.8 µM and 249 µM, respectively. In addition, in the assay filed under Homo sapiens, the Ratio IC50 came to 18.1.
The like results for `CCCOc1ccn2c(C(C)=O)cc(-c3nc4ccccn4c3NC3CCCCC3)c2c1` were, in that order, 8.72 µM, 142 µM and 16.2.
The like results for `Cc1nc(-c2nc3ccccn3c2NCc2ccc(C#N)cc2)c[nH]1` were, in that order, 26.8 µM, 267 µM and 9.97.
In the same order, the values of `Cc1nc(-c2nc3ccc(Br)cn3c2NCCN2CCOCC2)c[nH]1` are 450 µM, 194 µM and 0.43.
In the case of `Cc1nc(-c2nc3cnccn3c2NCc2ccc(C#N)cc2)c[nH]1`, the half-inhibitory concentration (IC50) came out at 207 µM in assay [1] and 54.8 µM in assay [2]. Moreover, the Ratio IC50 in the assay listed under Homo sapiens is 0.26.
The like results for `N#Cc1ccc(CNc2c(-c3ccc4nccn4c3)nc3ccc(Br)cn23)cc1` were, in that order, 48.1 µM, 296 µM and 6.16.
The like results for `CCCOc1ccn2c(C(C)=O)cc(-c3nc4ccc(C(=O)OC)cn4c3Nc3ccc(OC)cc3)c2c1` were, in that order, 48.6 µM, 355 µM and 7.3.
As to `COC(=O)c1ccc2nc(-c3nc[nH]c3C)c(NCc3ccc(C#N)cc3)n2c1`, the values for the IC50 in assay [1] and in assay [2] were 113 µM and 319 µM, respectively. Besides, the Ratio IC50 in the assay filed under Homo sapiens amounted to 2.83.
The like results for `COc1ccc(CCNc2c(-c3ccc4nccn4c3)nc3ccc(Br)cn23)cc1OC` were, in that order, 20.4 µM, 283 µM and 13.9.
For `COc1ccc(Nc2c(-c3c[nH]c(C)n3)nc3ccccn23)cc1`, the IC50 is 0.00319 µM in assay [1] and 1.71 µM in assay [2]. Further, the Ratio IC50 in the assay filed under Homo sapiens is 538.
For the compound `COc1ccc(Nc2c(-c3ccc4nccn4c3)nc3cnccn23)cc1`, the figures for the IC50 in assay [1] and in assay [2] were 38.3 µM and 88.3 µM, respectively. In the assay listed under Homo sapiens, the Ratio IC50 was 2.3.
In the same order, the values of `Cc1[nH]cnc1-c1nc2ccc(Br)cn2c1NC1CCCCC1` are 1.03 µM, 8.48 µM and 8.27.
In the same order, the values of `Cc1nc(-c2nc3ccccn3c2NCCN2CCOCC2)c[nH]1` are 27.8 µM, 242 µM and 8.73.
In the same order, the values of `COCCNc1c(-c2ccc3nccn3c2)nc2ccc(Br)cn12` are 156 µM, 706 µM and 4.53.
Take `N#Cc1ccc(CNc2c(-c3ccc4nccn4c3)nc3cnccn23)cc1`: the IC50 in assay [1] was 46.1 µM; in assay [2] it was 818 µM. Besides, in the assay filed under Homo sapiens, the Ratio IC50 stood at 17.7.
In the same order, the values of `CCCOc1ccn2c(C(C)=O)cc(-c3nc4ccccn4c3NCCOC)c2c1` are 47.5 µM, 445 µM and 9.36.
The like results for `COC(=O)c1ccc2nc(-c3c[nH]c(C)n3)c(NC3CCCCC3)n2c1` were, in that order, 18.9 µM, 180 µM and 9.48.
For the compound `COCCNc1c(-c2c[nH]c(C)n2)nc2ccccn12`, the half-inhibitory concentration (IC50) came out at 17.2 µM in assay [1] and 141 µM in assay [2]. Besides, the Ratio IC50 in the assay listed under Homo sapiens is 8.16.
The like results for `CCCOc1ccn2c(C(C)=O)cc(-c3nc4cnccn4c3NCCc3ccc(OC)c(OC)c3)c2c1` were, in that order, 23.7 µM, 835 µM and 35.3.
For `COC(=O)c1ccc2nc(-c3ccc4nccn4c3)c(Nc3ccc(OC)cc3)n2c1`, the values for the IC50 in assay [1] and in assay [2] were 22.2 µM and 375 µM, respectively. The Ratio IC50 in the assay listed under Homo sapiens was 16.9.
With `CCCOc1ccn2c(C(C)=O)cc(-c3nc4cnccn4c3NCCN3CCOCC3)c2c1`, the 50% inhibitory concentration (IC50) in assay [1] was determined as 151 µM; in assay [2] it was 4980 µM. Also, the Ratio IC50 in the assay listed under Homo sapiens was determined as 32.9.
The like results for `COCCNc1c(-c2c[nH]c(C)n2)nc2ccc(Br)cn12` were, in that order, 7.88 µM, 243 µM and 30.8.
For `COC(=O)c1ccc2nc(-c3nc[nH]c3C)c(Nc3ccc(OC)cc3)n2c1`, the IC50 in assay [1] was 19.3 µM; in assay [2], 77.2 µM. In addition, the Ratio IC50 in the assay filed under Homo sapiens came to 3.99.
Regarding `Cc1nc(-c2nc3cnccn3c2NCCN2CCOCC2)c[nH]1`, the IC50 in assay [1] came out at 131 µM; in assay [2] it was 1890 µM. For the same compound, the Ratio IC50 in the assay listed under Homo sapiens was 14.5.
In the same order, the values of `Cc1[nH]cnc1-c1nc2ccc(Br)cn2c1NCc1ccc(C#N)cc1` are 10.1 µM, 29.3 µM and 2.91.
`CCCOc1ccn2c(C(C)=O)cc(-c3nc4ccccn4c3NCCc3ccc(OC)c(OC)c3)c2c1`: the IC50 in assay [1] stood at 21.7 µM; in assay [2], 372 µM. Also, the Ratio IC50 in the assay filed under Homo sapiens is 17.1.
In the same order, the values of `CCCOc1ccn2c(C(C)=O)cc(-c3nc4ccc(C(=O)OC)cn4c3NCCN3CCOCC3)c2c1` are 95.6 µM, 1040 µM and 10.9.
`COc1ccc(Nc2c(-c3nc[nH]c3C)nc3cnccn23)cc1`: the IC50 in assay [1] was 14.7 µM; in assay [2], 7.32 µM. Moreover, in the assay listed under Homo sapiens, the Ratio IC50 was determined as 0.5.
The like results for `COC(=O)c1ccc2nc(-c3ccc4nccn4c3)c(NCCc3ccc(OC)c(OC)c3)n2c1` were, in that order, 15.7 µM, 5980 µM and 380.
In the same order, the values of `Cc1[nH]cnc1-c1nc2cnccn2c1NCCN1CCOCC1` are 71 µM, 119 µM and 1.67.
In the same order, the values of `COC(=O)c1ccc2nc(-c3c[nH]c(C)n3)c(NCCc3ccc(OC)c(OC)c3)n2c1` are 7.17 µM, 622 µM and 86.8.
For the compound `Cc1nc(-c2nc3ccc(Br)cn3c2NC2CCCCC2)c[nH]1`, the IC50 stood at 3.6 µM in assay [1] and 13 µM in assay [2]. The Ratio IC50 in the assay filed under Homo sapiens came to 3.62.
In the same order, the values of `COCCNc1c(-c2ccc3nccn3c2)nc2ccccn12` are 139 µM, 5800 µM and 41.7.
Take `CCCOc1ccn2c(C(C)=O)cc(-c3nc4ccccn4c3Nc3ccc(OC)cc3)c2c1`: the IC50 in assay [1] amounted to 9.6 µM; in assay [2] it was 159 µM. For the same compound, in the assay filed under Homo sapiens, the Ratio IC50 was found to be 16.6.
